Test [1] concerns the target Insulin-degrading enzyme (Homo sapiens) (UniProt P14735). The following applies: 2 mM.
For test [2] the target is unchanged. Put plainly: Inhibition of human recombinant IDE expressed in Escherichia coli BL21 (DE3) cells using ATTO 655- Cys-Lys-Leu-Val-Phe-Phe-Ala-Glu-Asp-Trp as substrate at 100 uM preincubated for 10 mins followed by substrate addition and measured after 30 mins by spectrophotometric analysis relative to control.
Test [3] has as its target T1, Insulin-degrading enzyme (Homo sapiens, UniProt P14735).
T1 sequence (P14735 whole entry): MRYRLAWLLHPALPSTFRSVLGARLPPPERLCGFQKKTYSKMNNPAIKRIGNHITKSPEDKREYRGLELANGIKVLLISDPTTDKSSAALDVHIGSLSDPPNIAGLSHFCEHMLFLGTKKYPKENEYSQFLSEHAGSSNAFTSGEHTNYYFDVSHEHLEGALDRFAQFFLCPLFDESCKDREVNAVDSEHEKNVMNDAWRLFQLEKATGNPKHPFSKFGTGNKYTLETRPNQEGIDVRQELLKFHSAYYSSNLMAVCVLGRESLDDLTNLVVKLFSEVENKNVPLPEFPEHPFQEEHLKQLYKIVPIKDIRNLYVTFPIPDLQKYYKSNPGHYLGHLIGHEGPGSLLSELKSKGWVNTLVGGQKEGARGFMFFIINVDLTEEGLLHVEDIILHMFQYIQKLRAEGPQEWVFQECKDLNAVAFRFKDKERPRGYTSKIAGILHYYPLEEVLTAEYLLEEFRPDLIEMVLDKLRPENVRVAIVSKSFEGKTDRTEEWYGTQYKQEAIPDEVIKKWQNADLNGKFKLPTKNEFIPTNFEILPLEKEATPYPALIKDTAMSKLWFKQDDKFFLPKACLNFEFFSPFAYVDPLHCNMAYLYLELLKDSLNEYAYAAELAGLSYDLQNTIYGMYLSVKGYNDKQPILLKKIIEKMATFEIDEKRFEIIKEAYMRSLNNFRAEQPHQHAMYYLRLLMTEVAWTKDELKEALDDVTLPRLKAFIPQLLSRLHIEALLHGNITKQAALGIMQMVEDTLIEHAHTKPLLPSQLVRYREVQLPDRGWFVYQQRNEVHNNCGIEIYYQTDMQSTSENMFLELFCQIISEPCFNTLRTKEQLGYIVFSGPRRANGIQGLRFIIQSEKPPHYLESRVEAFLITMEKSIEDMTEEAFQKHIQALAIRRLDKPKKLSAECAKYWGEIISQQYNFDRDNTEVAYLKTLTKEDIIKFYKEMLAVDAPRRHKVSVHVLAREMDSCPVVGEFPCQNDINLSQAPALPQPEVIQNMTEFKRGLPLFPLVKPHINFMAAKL
Put plainly: Inhibition of human recombinant IDE expressed in Escherichia coli BL21 (DE3) cells using ATTO 655- Cys-Lys-Leu-Val-Phe-Phe-Ala-Glu-Asp-Trp as substrate preincubated for 10 mins followed by substrate addition and measured after 30 mins by spectrophotometric analysis.

The target of test [4] is Insulin-degrading enzyme (Homo sapiens) (UniProt P14735). The following applies: HepG2, 30 uM.
The target in test [5] is Insulin-degrading enzyme (Homo sapiens, UniProt P14735, C110L/C171S/C178A/C257V/C414L/C573N/C590S/C789S/C812A/C819A/C904S/C966N/C974A). Put plainly: biochemical.
In test [6] the target is Insulin-degrading enzyme (Homo sapiens) (UniProt P14735). Put plainly: Irreversible inhibition of human recombinant IDE expressed in Escherichia coli BL21 (DE3) cells using ATTO 655- Cys-Lys-Leu-Val-Phe-Phe-Ala-Glu-Asp-Trp as substrate preincubated for 30 mins followed by 100 fold compound dilution by spectrophotometric analysis.

Activity calls are given as the source filed them. The rule behind the calls is not given here.

Sequence of Insulin-degrading enzyme (Homo sapiens, UniProt P14735, C110L/C171S/C178A/C257V/C414L/C573N/C590S/C789S/C812A/C819A/C904S/C966N/C974A) (P14735 whole entry C110L/C171S/C178A/C257V/C414L/C573N/C590S/C789S/C812A/C819A/C904S/C966N/C974A): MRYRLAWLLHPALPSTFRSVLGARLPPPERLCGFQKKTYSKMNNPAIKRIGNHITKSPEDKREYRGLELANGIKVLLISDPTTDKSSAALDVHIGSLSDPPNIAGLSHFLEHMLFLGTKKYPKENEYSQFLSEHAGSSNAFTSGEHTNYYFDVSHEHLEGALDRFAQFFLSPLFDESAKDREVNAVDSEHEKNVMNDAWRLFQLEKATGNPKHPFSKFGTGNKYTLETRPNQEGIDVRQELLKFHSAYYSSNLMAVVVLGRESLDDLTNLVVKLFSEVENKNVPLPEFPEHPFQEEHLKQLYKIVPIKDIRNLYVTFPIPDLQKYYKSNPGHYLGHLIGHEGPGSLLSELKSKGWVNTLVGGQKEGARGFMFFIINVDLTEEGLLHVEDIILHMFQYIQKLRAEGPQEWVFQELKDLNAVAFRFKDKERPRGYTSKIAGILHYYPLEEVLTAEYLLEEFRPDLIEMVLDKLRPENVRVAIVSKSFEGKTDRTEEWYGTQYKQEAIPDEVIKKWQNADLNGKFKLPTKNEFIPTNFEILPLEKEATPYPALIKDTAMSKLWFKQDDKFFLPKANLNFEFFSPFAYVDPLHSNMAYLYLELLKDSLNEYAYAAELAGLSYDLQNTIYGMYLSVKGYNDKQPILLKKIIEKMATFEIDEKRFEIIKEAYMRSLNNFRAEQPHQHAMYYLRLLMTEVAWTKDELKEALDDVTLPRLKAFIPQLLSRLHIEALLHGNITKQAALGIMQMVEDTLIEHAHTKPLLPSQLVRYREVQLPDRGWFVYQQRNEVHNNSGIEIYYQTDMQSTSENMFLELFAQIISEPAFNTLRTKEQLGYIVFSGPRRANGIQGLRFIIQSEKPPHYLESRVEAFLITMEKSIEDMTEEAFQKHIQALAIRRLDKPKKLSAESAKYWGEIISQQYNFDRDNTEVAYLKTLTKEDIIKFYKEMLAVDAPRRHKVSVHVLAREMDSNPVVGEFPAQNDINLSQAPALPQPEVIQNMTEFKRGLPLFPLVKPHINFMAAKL

As to `O=C(O)CN(CCN(CC(=O)O)CC(=O)O)CC(=O)O`, in test [1], the inhibition – broadly, the relative decrease from the control value, in per cent – is 100%. Consider `COc1ccc2[nH]c([S+]([O-])Cc3ncc(C)c(OC)c3C)nc2c1` (configuration not stated), for which, in test [2], the inhibition was determined as 41%. Take `COCCCOc1ccnc(C[S+]([O-])c2nc3ccccc3[nH]2)c1C` (configuration not stated) [RABEPRAZOLE]: the IC50 (as a rule, the concentration needed to halve the response being measured) on Insulin-degrading enzyme [3] stood at 11 µM. The inhibition in test [2] came to 98%.

`O=C(C[C@@H](Cc1ccc2ccccc2c1)n1cc(CNC(=O)c2ccc(F)cc2)nn1)NO`: the deltaT in test [4] was 6.4 °C. The same molecule registered an IC50 on Insulin-degrading enzyme [5] of 0.33 µM. With `COc1ccc2[nH]c([S+]([O-])Cc3ncc(C)c(OC)c3C)nc2n1` (configuration not stated), the inhibition in test [2] turned out to be 35%. On to `O=c1c(O)c(-c2cc(O)c(O)c(O)c2)oc2cc(O)cc(O)c12` [MYRICETIN], for which the IC50 at Insulin-degrading enzyme [3] is 100 µM. As for `O=c1c2ccccc2[se]n1-c1ccccc1`, the deltaT in test [4] came to 1.3 °C. For `CCN1C(=O)C=CC1=O`, the inhibition entry in test [6] is “Active”. With `COc1ccnc(C[S+]([O-])c2nc3cc(OC(F)F)ccc3[nH]2)c1OC` (configuration not stated), the inhibition in test [2] is 0%. Take `Cc1c(OCC(F)(F)F)ccnc1C[S+]([O-])c1nc2ccccc2[nH]1` (configuration not stated): the inhibition in test [2] was 38%.

Values taken from ChEMBL document CHEMBL4396912 (Eur J Med Chem, 2019).
